According to patent US20160136071A1, “Topical bimatoprost for promoting hair growth containing formulations” (priority 2013, published 2016):

Assays:
[1] = tested on: lashes and adjacent hairs; experiment: Daily-practice observation of lashes in glaucoma patients treated with bimatoprost in one eye; type: in vivo, human
Text: In the course of treating patients having glaucoma, treatment may only be appropriate in one eye. […] The lash appearance on the lids of the treated eye would have appeared quite attractive if it represented a bilateral phenomenon. Because of its asymmetric nature, the long lashes on one side could be construed as disturbing from a cosmetic standpoint. Because of the very unusual appearance a systematic examination of other patients who were taking bimatoprost in only one eye was made. It soon became apparent that this altered appearance was not an isolated finding. […] Definite differences could be identified to varying degrees in the lashes and adjacent hairs of all patients who were taking the drug on a unilateral basis for longer than 6 months. These findings were totally unexpected and surprising.
The changes in the lashes after topical application of bimatoprost were apparent on gross inspection in several patients once attention was focused on the issue. In those with light colored hair and lashes, the differences were only seen easily with the aid of the high magnification and lighting capabilities of the slit lamp biomicroscope. In the course of a glaucoma follow up examination, attention is generally immediately focused on the eye itself. […]

[2] = tested on: lashes and hair around the eyes; experiment: Study of lashes and hair around the eyes of glaucoma patients administering bimatoprost in only one eye (slit lamp biomicroscope); type: in vivo, human; conditions: one drop daily of 0.03% ophthalmic solution to one eye
Method: A study is initiated to systematically evaluate the appearance of lashes and hair around the eyes of patients who are administering bimatoprost in only one eye. The study involves 10 subjects, 5 male, 5 female, average age 70 years, (ranging from 50-94 years). All patients have glaucoma. Each subject is treated daily by the topical application of one drop of bimatoprost at a dosage of 1.5 µg/ml/eye/day (0.03%, by weight, ophthalmic solution, sold under the names Lumigan® and Latisse® by Allergan, Irvine, Calif., U.S.A.) to the region of one eye by instilling the drop onto the surface of the eye. The region of the fellow control eye is not treated with bimatoprost and served as a control.
In the course of treatment with eye drops, there is typically spontaneous tearing, and excess fluid from the drops and associated tears gathers at the lid margins. In the course of wiping the drug containing fluid from the lid margins and adjacent lid, a thin film of the fluid is routinely spread to contact the adjacent skin of the lid area.
The study is limited to subjects who have administered bimatoprost to one eye for more than 3 months. The mean duration of exposure to bimatoprost prior to assessing the parameter of lash growth between the control and study eye is 129 days (range 90-254 days). Observations are made under high magnification at the slit lamp biomicroscope. Documentation of differences between the control and treatment areas is accomplished using a camera specially adapted for use with the slit lamp biomicroscope. The results of the observations are as follows: Length of lashes: Increased length of eyelashes is regularly observed on the side treated with bimatoprost. The difference in length varies from approximately 10% to as much as 30%. […] In areas where there are a large number of lashes in the control eye, the increased number of lashes in the bimatoprost-treated eye gave the lashes on the treated side a more thickly matted overall appearance. […] These long, thick lash-like hairs were present in the central portion of the lids of several patients in a linear arrangement just above the lash line. Hairs are present at similar locations in the control eyes but are by contrast thinner or more fine in appearance, have less luster and pigment and are more flat against the skin of the lid typical of vellus or intermediate hairs. In several patients, lash-like terminal hairs grow luxuriantly in the medial canthal area in the treated eye. In the corresponding control eye, vellus hairs are seen at the same location. Lash-like hairs are also present in the lateral canthal area of the treated eye but not the control eye in several subjects. […]

[3] = powder, cited from earlier work

## CCNC(=O)CCC/C=C\C[C@@H]1[C@@H](/C=C/[C@@H](O)CCc2ccccc2)[C@H](O)C[C@@H]1O [Bimatoprost, (Z)-7-[(1R,2R,3R,5S)-3,5Dihydroxy-2-[(1E,3S)-3-hydroxy-5-phenyl-1-pentenyl]cyclopentyl]-5-N-ethylheptenamide]
[1]; glaucoma patient treated in one eye
  Lash appearance in treated eye vs non-treated eye: longer, thicker and fuller in the treated eye than in the non-treated eye
[1]; patients treated in or around the eye
  Hypertrichosis in the region of treatment: regularly develop hypertrichosis
[2]; areas below and lateral to the lower lid
  Growth of vellus hair on lids, treated vs control eye: increased in number, appear more robust and are much longer and thicker
[2]; lash-like hairs above lash line and in canthal areas
  Perpendicular angulation of hairs, treated vs control eye: leave the surface of the skin at a more acute angle
[2]; mean exposure 129 days, fellow eye untreated
  Number of lashes, treated vs control eye: Increased numbers of lashes
[2]; several patients
  Auxiliary lash-like hair growth, treated vs control eye: apparent increase in lash-like hair in transitional areas
[3]; ethyl alcohol
  solubility in ethyl alcohol: very soluble
[3]; methyl alcohol
  solubility in methyl alcohol: very soluble
[3]; water
  solubility in water: slightly soluble
